Here are results for nine molecules from PubChem BioAssay (NCI).

Test systems include A498 renal; A549 NSCLC; BT-549 breast; EKVX NSCLC; HCT-116 colon; K-562 leukemia; NCI-H460 lung; NCI/ADR-RES ovarian; SF-295 CNS; SK-OV-3 ovarian.
Holding throughout (experiment): inhibition of tumour cell growth, NCI panel, 48 h

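These data come from cells grown in 96-well plates and exposed to compound for 48 hours at five concentrations. Here, GI50 denotes the concentration required for 50% inhibition of growth. TGI is the concentration that stops growth completely.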

On to `COc1cc2c(cc1OCCCOC1=C=C=C(c3ccc4c(c3)c3cc(-c5ccc(OCCCOc6cc7c(cc6OC)C(=O)N6CCC[C@H]6C=N7)cc5)ccc3n4S(=O)(=O)c3ccc(C)cc3)C=C1)N=C[C@@H]1CCCN1C2=O`, for which the GI50 with A498 renal is 3.14 µM; with A549 NSCLC, 6.7 µM; in the assay on BT-549 breast it was 1.16 µM; in the assay on EKVX NSCLC it was 9.35 µM; in the assay with HCT-116 colon, 1.62 µM; with K-562 leukemia it was 1.06 µM. Further, the GI50 in the assay with NCI-H460 lung is 1.38 µM; with NCI/ADR-RES ovarian, more than 26.1 µM; in the assay on SF-295 CNS it was 1.14 µM; in the assay with SK-OV-3 ovarian it was 5.42 µM. The TGI in the assay on A498 renal was 9.06 µM; with A549 NSCLC, 20.5 µM; with BT-549 breast, 4.59 µM; in the assay with EKVX NSCLC, 22.9 µM; with HCT-116 colon, 7.05 µM; in the assay on K-562 leukemia it was more than 18.6 µM. Also, the TGI in the assay with NCI-H460 lung is 7.99 µM; in the assay on NCI/ADR-RES ovarian, more than 50 µM; in the assay on SF-295 CNS it was 4.62 µM; in the assay on SK-OV-3 ovarian it was 16.5 µM.

As to `OCCCCC#Cc1ccccc1C#Cc1ccccc1F`, the GI50 in the assay with A498 renal was 26.9 µM; in the assay on A549 NSCLC, 15.7 µM; in the assay with BT-549 breast it was 21.7 µM; with EKVX NSCLC it was 29.4 µM; in the assay with HCT-116 colon, 16.2 µM; with K-562 leukemia, 23.2 µM. Also, the GI50 in the assay on NCI-H460 lung is 25.9 µM; with NCI/ADR-RES ovarian, 21.1 µM; in the assay on SF-295 CNS, 21.6 µM; with SK-OV-3 ovarian it was 23.8 µM. Further, the TGI in the assay with A498 renal was determined as 82.5 µM; in the assay on A549 NSCLC, 34.5 µM; with BT-549 breast, 52.7 µM; in the assay with EKVX NSCLC, 94.4 µM; in the assay on HCT-116 colon, 29.9 µM; with K-562 leukemia, 47.2 µM. Further, the TGI was found to be 60.5 µM in the assay on NCI-H460 lung, 46.7 µM with NCI/ADR-RES ovarian, 42.7 µM in the assay with SF-295 CNS and 58.4 µM in the assay on SK-OV-3 ovarian.

Consider `Cc1nc2cncc(C#Cc3cncc(C(=O)Nc4ccc(CN5CCN(C)CC5)c(C(F)(F)F)c4)c3)c2nc1C`, for which the GI50 is 0.0756 µM in the assay on A498 renal; 0.585 µM in the assay with A549 NSCLC; 1.72 µM in the assay on BT-549 breast; 0.8 µM with EKVX NSCLC; 0.248 µM in the assay with HCT-116 colon; 0.005 µM in the assay with K-562 leukemia. Besides, the GI50 in the assay with NCI-H460 lung was 0.354 µM; in the assay with NCI/ADR-RES ovarian, 1.83 µM; in the assay on SF-295 CNS, 2.13 µM; in the assay with SK-OV-3 ovarian, 0.251 µM. For the same molecule, the TGI is 0.772 µM in the assay with A498 renal; 7.28 µM with A549 NSCLC; 7.8 µM in the assay on BT-549 breast; 5.05 µM in the assay on EKVX NSCLC; 2.22 µM with HCT-116 colon; 5.81 µM in the assay on K-562 leukemia. Moreover, the TGI in the assay with NCI-H460 lung was found to be 6.34 µM; in the assay on NCI/ADR-RES ovarian, 8.65 µM; in the assay with SF-295 CNS it was 22.2 µM; in the assay on SK-OV-3 ovarian, 5.62 µM.

On to `CCCCCCCCCCCCCC[P+](CCCCCC)(CCCCCC)CCCCCC`, for which the TGI with A498 renal was 1.03 µM; in the assay with A549 NSCLC, more than 100 µM; in the assay on BT-549 breast it was 0.381 µM; with EKVX NSCLC it was 0.917 µM; in the assay on HCT-116 colon it was more than 100 µM; in the assay with K-562 leukemia it was 0.0858 µM. Moreover, the TGI with NCI-H460 lung was 1.22 µM; in the assay with NCI/ADR-RES ovarian, more than 100 µM; in the assay with SF-295 CNS, 0.432 µM. Moreover, the GI50 in the assay on A549 NSCLC is 0.292 µM; in the assay on BT-549 breast, 0.0412 µM; with EKVX NSCLC, 0.0632 µM; with HCT-116 colon, 0.0606 µM; in the assay on K-562 leukemia, 0.0232 µM; in the assay on NCI-H460 lung it was 0.315 µM. In addition, the GI50 in the assay on NCI/ADR-RES ovarian was 0.73 µM; in the assay with SF-295 CNS it was 0.0783 µM; in the assay with SK-OV-3 ovarian it was 0.2 µM.

On to `ON(CCc1ccncc1)Cc1ccccc1`, for which the TGI with A498 renal, with A549 NSCLC, in the assay with BT-549 breast, in the assay on EKVX NSCLC, in the assay on HCT-116 colon and with K-562 leukemia was more than 100 µM each time. Also, the TGI in the assay with NCI/ADR-RES ovarian, in the assay on SF-295 CNS and in the assay on SK-OV-3 ovarian was more than 100 µM in each case.

As for `CCCCCCOc1ccc(/C=N/NC(N)=S)cc1`, the GI50 in the assay on A498 renal was 16.8 µM; in the assay on A549 NSCLC, 31.8 µM; in the assay on BT-549 breast it was 2.79 µM; with EKVX NSCLC, 2.83 µM; in the assay with HCT-116 colon, 3.31 µM; in the assay on K-562 leukemia it was 1.72 µM. Also, the GI50 is 10.2 µM with NCI-H460 lung, 3.4 µM in the assay on NCI/ADR-RES ovarian and 27.2 µM with SK-OV-3 ovarian. Besides, the TGI in the assay on A498 renal is 32.3 µM; in the assay on A549 NSCLC, more than 100 µM; in the assay on BT-549 breast, 9.15 µM; in the assay with EKVX NSCLC, more than 53.1 µM; in the assay with HCT-116 colon it was 16.1 µM; with K-562 leukemia it was more than 26.8 µM. Besides, the TGI in the assay on NCI-H460 lung was more than 100 µM; with NCI/ADR-RES ovarian, 18.3 µM; in the assay on SK-OV-3 ovarian, more than 100 µM.

`CC1=C(SCc2ccccc2)C(=O)c2ccccc2C1=O`: the TGI with A498 renal was 62.1 µM; with BT-549 breast, 32.1 µM; with EKVX NSCLC it was 44 µM; with HCT-116 colon it was 18.2 µM; in the assay on K-562 leukemia, more than 100 µM; in the assay on NCI-H460 lung, 51.6 µM. Besides, the TGI in the assay on NCI/ADR-RES ovarian came to 61.1 µM; with SF-295 CNS it was 32.5 µM; with SK-OV-3 ovarian, 44.6 µM.

`Cc1ccc2c[c]1[Hg][CH2]COS2(=O)=O`: the GI50 in the assay on A498 renal is 15.8 µM; in the assay with A549 NSCLC it was more than 100 µM; in the assay with BT-549 breast it was 17.8 µM; with EKVX NSCLC, 21.5 µM; in the assay on HCT-116 colon it was 16.6 µM; with K-562 leukemia, 16.4 µM. Moreover, the GI50 in the assay with NCI-H460 lung is more than 100 µM; in the assay on NCI/ADR-RES ovarian it was 25 µM; with SK-OV-3 ovarian it was more than 100 µM. In addition, the TGI in the assay on A498 renal was 29.3 µM; with A549 NSCLC, more than 100 µM; in the assay with BT-549 breast it was 31.6 µM; in the assay on EKVX NSCLC, 38.5 µM; in the assay on HCT-116 colon, 30.2 µM; in the assay on K-562 leukemia it was 41.2 µM. Moreover, the TGI in the assay on NCI-H460 lung is more than 100 µM; in the assay on NCI/ADR-RES ovarian it was 62.1 µM; in the assay on SK-OV-3 ovarian, more than 100 µM.

Turning to `COc1ccc(C(O)c2cc3c(N)c(C(=O)Nc4cccc(Cl)c4C)sc3nc2C)cc1` (stereo not given), the GI50 is 0.761 µM with A498 renal; 0.933 µM in the assay on A549 NSCLC; 0.888 µM with BT-549 breast; 0.886 µM with EKVX NSCLC; 0.198 µM with K-562 leukemia; 0.834 µM in the assay on NCI-H460 lung. Besides, the GI50 in the assay with NCI/ADR-RES ovarian is 0.915 µM; with SF-295 CNS, 0.881 µM; with SK-OV-3 ovarian, 0.988 µM. Also, the TGI in the assay on A498 renal turned out to be 1.63 µM; in the assay on A549 NSCLC, 2.02 µM; in the assay on BT-549 breast, 1.77 µM; in the assay on EKVX NSCLC, 2.16 µM; in the assay with K-562 leukemia, 1.45 µM; in the assay on NCI-H460 lung it was 1.73 µM. The figures for the TGI with NCI/ADR-RES ovarian, in the assay on SF-295 CNS and in the assay on SK-OV-3 ovarian were 1.84 µM, 1.66 µM and 2.09 µM, respectively.
